Assay results as given in patent US20080119481A1, “Crystalline forms of 6-methoxy-8-[4-(1-(5-fluoro)-quinolin-8-yl-piperidin-4-yl)-piperazin-1-yl]-quinoline” (Wyeth, priority 2006, published 2008).
“And” between values parts separate entries of the source, which are not always exact repeats. Equal values may be shown once.

COc1cc(N2CCN(C3CCN(c4ccc(F)c5cccnc45)CC3)CC2)c2ncccc2c1 (hydrate or solvate) [Form A, 6-methoxy-8-[4-(1-(5-fluoro)-quinolin-8-yl-piperidin-4-yl)-piperazin-1-yl]-quinoline]
melting point: ~ 196 °C and 198 °C
